pKd: −log10 of the molar value. “Also recorded” adds a separate entry of the source. Like-named read-outs stand apart in the source and are kept apart here.
How the values were obtained:
Atp7b^−/− rats = test: Chelator treatment of WD rats: copper in serum, urine and feces (ICP-OES); type: in vivo, rat
Description: Control Atp7b^+/- and WD Atp7b^-/- rats were fed ad libitum with normal chow (1314; 13.89 mg Cu/kg; Altromin Spezialfutter GmbH, […], Germany) and tap water. All rats were healthy at treatment start and presented no signs of acute liver damage (serum AST <200 U/L and serum bilirubin <0.5 mg/dl). […] Untreated Atp7b^+/- and Atp7b^-/- rats served as controls. Urine and feces were collected at 24-hour intervals for which rats were housed individually in metabolic cages for 4 days. After a two-day resting period off treatment in normal cages and group housing, rats were sacrificed for serum collection.

[1] = tested on: HepG2, EA.hy926, U87MG and SHSY5Y cells; test: Cu-albumin cell toxicity, CellTiter-Glo, all investigated cell lines; type: cell-based, human
Description: (§1) SHSY5Y (human neuroblastoma), U87MG (human astrocytoma), EA.hy926 (human endothelium) and HepG2 (human hepatocellular carcinoma) cells were from ATCC (Wesel, Germany) and were cultured in Dulbecco's Modified Eagle Medium (DMEM) supplemented with 10% FCS (Biochrom, Berlin, Germany) and 1% antibiotic-antimycotic (Life Technologies, Carlsbad, USA). All cells were maintained at 37° C. in a humidified atmosphere with 5% CO2.

HepG2 cells [2] = test: Cu-albumin cell toxicity, CellTiter-Glo, HepG2; type: cell-based, human; settings: HepG2, 750 μM chelator
Description: as §1

EA.hy926 cells [3] = test: Cu-albumin cell toxicity, CellTiter-Glo, EA.hy926; type: cell-based, human; settings: EA.hy926, 750 μM chelator
Description: as §1

[4] = tested on: HepG2, EA.hy926, U87MG and SHSY5Y cells; test: Toxicity of the chelator itself in a copper-free setting, CellTiter-Glo
Description: as §1

[5] = tested on: HepG2, EA.hy926, U87MG and SHSY5Y cells; test: Cellular copper content (ICP-OES), all cell lines; type: cell-based, human; settings: 750 μM copper, 250 μM albumin, 750 μM chelator, 24 h; vs Cu-albumin alone
From the text: (§2) Afterwards, cells were trypsinized and counted.

EA.hy926 cells [6] = test: Cellular copper content (ICP-OES), EA.hy926; type: cell-based, human; settings: EA.hy926; 750 μM copper, 250 μM albumin, 750 μM chelator; vs Cu-albumin alone
From the text: as §2

HepG2 cells [7] = test: Cellular copper content (ICP-OES), HepG2; type: cell-based, human; settings: 750 μM copper, 250 μM albumin, 750 μM chelator, vs Cu-albumin alone
From the text: as §2

SHSY5Y cells = test: Cellular copper content (ICP-OES), SHSY5Y; type: cell-based, human; settings: 750 μM copper, 250 μM albumin, 750 μM chelator, vs Cu-albumin alone
From the text: as §2

EA.hy926 and U87MG cells = test: Electron microscopy of mitochondrial structure; type: cell-based, human; settings: electron micrographs, co-treatment with chelator
From the text: Electron microscopy of cells was done as previously described ([…]., et al., Cell Mol Gastroenterol Hepatol, 2018. 7(3): p. 571-596) on a 1200EX electron microscope (JEOL, […], Japan) at 60 kv. Pictures were taken with a […] digital camera (Olympus, Hamburg, Germany) and processed by the iTEM software package (analySIS FIVE, Olympus, Hamburg, Germany).

PBCEC monolayers [8] = test: TEER and capacitance of PBCEC monolayers (endothelial blood-brain barrier model); type: cell-based, porcine
From the text: (§3) For transepithelial resistance (TEER) experiments (Srinivasan, B., et al., J Lab Autom, 2015. 20(2): p. 107-26), cryopreserved primary porcine brain capillary endothelial cells (PBCECs) were thawed and seeded either on rat tail collagen-coated 96-well plates for cytotoxicity testing using the Neutral red assay (Repetto, G., A. del Peso, and J. L. Zurita, Nat Protoc, 2008. 3(7): p. 1125-31) or Transwell® inserts (area: 1.12 cm^2, pore size: 0.4 μm: Corning, N.Y., USA) for barrier integrity studies. Cells were cultured for 48 hours in Earle's Medium 199 supplemented with 10% FCS, 50 U penicillin/mL, 50 μg/mL streptomycin, 100 μg/mL gentamycin and 0.7 mM I-glutamine and maintained at 37° C. in a humidified atmosphere with 5% CO2. […] TEER and capacitance values were continuously monitored over 48 h using a CellZscope device (nanoAnalytics, Münster, Germany). Only PBCEC monolayers with initial TEER values >600Ωcm^2 and capacitance values between 0.45 and 0.6 μF/cm^2 were used for permeability studies (Bornhorst, J., et al., J Biol Chem, 2012. 287(21): p. 17140-51). The barrier integrity was calculated by normalizing the TEER values to the respective start values.

PBCEC monolayers [9] = test: Copper in the basolateral compartment of the Transwell PBCEC model (ICP-MS/MS); type: cell-based, porcine; settings: 250 μM copper and 83.3 μM albumin, 250 μM chelator, after 48 h
From the text: as §3

[10] = tested on: tight junction protein claudin-5; test: Immunocytochemistry staining of claudin-5 in PBCEC monolayers; type: cell-based, porcine; settings: 250 μM copper and 83.3 μM albumin, 250 μM chelator
Description: Total copper was determined by ICP-MS/MS as previously described (Kopp, J. F., et al., J Trace Elem Med Biol, 2019. 54: p. 221-225). For the immunocytochemical staining of tight junction proteins, confluent PBCECs cultivated on Transwell® membrane inserts were processed as previously described ([…]., et al., Archives of Toxicology 2018. 92(2): p. 823-832). Briefly, PBCECs were fixed with formaldehyde and permeabilized using Triton X-100. After blocking of unspecific binding sites by albumin, the cells were incubated with the either anti-claudin 5 or anti-ZO-1 antibody (Zytomed Systems GmbH, Berlin, Germany). Following a second blocking step, the cells were treated with an Alexa Fluor® 488 conjugated secondary antibody (Invitrogen, Molecular Probes Inc., Eugene, USA). Hoechst 33258 (Merck, Darmstadt, Germany) was used to stain cell nuclei. Subsequently, membranes were cut out of the inserts and mounted in Aqua Poly/Mount (Polysciences Inc., Washington, USA). After a solidification period of 24 hours, the samples were evaluated using a DM6 B fluorescence microscope by Leica Microsystems CMS GmbH (Wetzlar, Germany) in combination with the Leica Application Suite X.

PBCEC monolayers [11] = test: Electron microscopy of tight junctions of PBCECs; type: cell-based, porcine; settings: copper-treated PBCECs, electron micrographs
Description: Electron microscopy of PBCECS grown on Transwell® inserts was performed as previously described (Ye, D., K. A. Dawson, and I. Lynch, Analyst, 2015. 140(1): p. 83-97) with minor modifications. Briefly, after fixation with 2.5% glutaraldehyde, cell monolayers were post-fixed with 1% osmium tetroxide for 30 min and dehydrated by ethanol.

[12] = tested on: HepG2, EA.hy926, U87MG and SHSY5Y cells; settings: 750 μM copper, 250 μM albumin, 750 μM chelator
Description: 2×10^4 cells were seeded into each well of a 96-well plate and incubated overnight. […] Cell toxicity was either determined by CellTiter-Glo® assay (Promega, Madison, USA) or Trypan blue exclusion test.
Afterwards, cells were trypsinized and counted. Cell viability was determined by Trypan blue exclusion test.

[13] = in vivo; cited from earlier work
neurologic WD patients = settings: cited from earlier work
[14] = unit inferred; read-out: Kd (copper affinity); cited from earlier work

## CC(C)(S)[C@@H](N)C(=O)O [DPA, (2S)-2-amino-3-methyl-3-sulfanylbutanoic acid, reference compound]
Atp7b^−/− rats; during treatment
  fecal copper excretion: unchanged
Atp7b^−/− rats; during treatment, urine collected over 24 h
  urinary copper excretion: significantly increased; also recorded: significant increase
Atp7b^−/− rats; i.p. once daily for 4 consecutive days (ALXN1840 2.5 mg/kg bw, DPA 100 mg/kg bw), serum at sacrifice after resting period
  serum copper levels: elevated blood copper was not observed
Atp7b^−/− rats; upon DPA treatment, total net uptake 3.95 μmol/24 h
  share of net copper intake found in the urine: 10%
Atp7b^−/− rats; upon DPA treatment, unpublished observation
  copper found in the urine: 0.4 μmol/24 h
[1]; 750 μM chelator, 250 μM albumin, copper 250 to 2500 μM, 24 h
  CellTiterGlo-assessed cell viability / Cu-albumin toxicity: much less effective; also recorded: not significantly increased
[1]; low dose of chelator (250 μM)
  CellTiterGlo-assessed cell viability / Cu-albumin toxicity: no effect on cell viability
HepG2 cells [2]
  CellTiterGlo-assessed cell viability / Cu-albumin toxicity: modest rescuing effect
EA.hy926 cells [3]
  CellTiterGlo-assessed cell viability / Cu-albumin toxicity: completely absent
[4]; copper-free setting
  non-toxic concentrations: up to 2 mM
[4]; without external Cu-albumin addition
  CellTiterGlo-assessed cell viability with chelator alone: not observed
[5]
  cellular copper content: in none of the cell lines a significant de-coppering was noted; also recorded: did not change the amount of copper uptake
EA.hy926 cells [6]
  cellular copper content: tendentiously lower copper content
HepG2 cells [7]
  cellular copper content: highly similar cellular copper contents
SHSY5Y cells
  cellular copper content: tendentiously lower copper content
EA.hy926 and U87MG cells
  Cu-albumin-induced alterations of mitochondrial structure: no/minor effect; also recorded: no positive effect
PBCEC monolayers [8]; 250 μM copper and 83.3 μM albumin, 250 μM chelator, 48 h
  transepithelial electrical resistance (TEER): not able to prevent the copper-induced TEER loss; also recorded: reduction of the TEER comparable to Cu-albumin treatment alone
PBCEC monolayers [8]; Cu-albumin treatment in the absence or presence of chelator
  capacitance values: unaffected
PBCEC monolayers [9]
  copper in the basolateral compartment (copper influx): could not be avoided
[10]
  claudin-5 staining pattern / copper-induced gap formation: could not prevent copper-induced gap formation; also recorded: did not prevent copper-induced gap formation
PBCEC monolayers [11]
  loss of electron-dense protein complexes at the cell-cell borders: not protected and not
[12]
  Trypan blue-assessed cell viability / copper-related cell toxicity: could not be avoided
[13]
  blood peak after application: 1 to 3 h
Neurologic WD patients; shortly upon treatment onset
  patients with dramatic symptom worsening: 19-52%
Neurologic WD patients; treated patients
  neurological worsening: frequently occur

## N[C@@H](Cc1c[nH]cn1)C(=O)O [histidine]
[14]
  pKd: ~9.00

## [SH-].[SH-].[S]=[Mo]=[S] [TTM, tetrathiomolybdate]
Neurologic WD patients; human, in vivo
  neurological worsening: hardly reported

Reference: patent US20220387370A1, “METHODS OF REDUCING NEUROLOGICAL DAMAGE IN WILSON DISEASE PATIENTS” (priority 2019, published 2022)
